From patent US9603860B2, “Pharmaceutical compositions comprising active drugs, contraceptive kits comprising active drugs, and methods of administering the same” (LABORATORIOS LEON FARMA SA, priority 2010, dated 2017)

Key:
[1] = test system: ovulation; experiment: Contraceptive efficiency trial, 24/4 regimen (ovulation inhibition, Example 5, Part 3); type: in vivo, human
Description: The study was an open-label monocentric trial. […] Excluded were subjects with a (suspected) pregnancy, active or past thromboembolic disorder, present or past severe hepatic disease, carcinoma of the endometrium or other known or suspected estrogen-dependent neoplasia, undiagnosed vaginal bleeding, use of liver enzyme-inducing drugs and other drugs.
The subjects received daily treatment with tablets containing about 4 mg DRSP with a 24/4 regimen during two treatment cycles. The subjects started treatment on the 1st day of the cycle (i.e., the first day of onset of vaginal bleeding) following the screening visit. […]
Blood sampling for hormonal determination (progesterone, 17-beta-estradiol, FSH and LH) was performed every 3 days from day 1 to day 84 and assessments of weight, blood pressure and heart rate were performed at each visit. Serum progesterone, 17-beta-estradiol, FSH and LH concentrations were measured with validated commercial in vitro diagnostic kits (V1DAS, ELFA Biomerieux). […]
The occurrence of ovulation during treatment was determined on the basis of serum progesterone concentration, using the criteria of Landgren et al. Thus, an ovulation was judged to have occurred in case of progesterone concentrations >5.04 ng/ml-sustained for at least 2 consecutive progesterone samples.

[2] = Particle size distribution by laser diffraction in wet dispersion; type: physicochemical; details: dispersant water
Description: The analysis of the particle size distribution of each batch was performed by laser diffraction method in wet dispersion (Helos sensor, Sympatec with the wet disperser Quixel). The dispersant used was water. The full particle dispersion was ensured by ultrasonication.

[3] = Specific area by BET method; type: physicochemical
Description: The specific area was determined by the BET method.

Row | d10 [2] [μm] | d50 [2] [μm] | d90 [2] [μm] | d99 [2] [μm] | Specific area [3] [m^2/g] | SMILES | ovulation during the 2 treatment cycles ([1]; 24/4 regimen, ovulation = progesterone >5.04 ng/ml in 2 consecutive samples) | women with progesterone above 5.04 ng/mL (return of ovulation) in 28-day follow-up cycle ([1]; upon cessation of treatment)
1 | 5.9 | 22.4 | 37.4 | 56.1 | 0.26 | C[C@]12CCC(=O)C=C1[C@@H]1C[C@@H]1[C@H]1[C@@H]3[C@@H]4C[C@@H]4[C@@]4(CCC(=O)O4)[C@@]3(C)CC[C@@H]12 [PR100003, Drospirenone] |  | 
2 |  |  |  |  | 0.66 | C[C@]12CCC(=O)C=C1[C@@H]1C[C@@H]1[C@H]1[C@@H]3[C@@H]4C[C@@H]4[C@@]4(CCC(=O)O4)[C@@]3(C)CC[C@@H]12 [PR100311, Drospirenone] |  | 

Further lines, the molecule ahead of its results:

Row | SMILES | d10 [2] [μm] | d50 [2] [μm] | d90 [2] [μm] | d99 [2] [μm] | Specific area [3] [m^2/g] | ovulation during the 2 treatment cycles ([1]; 24/4 regimen, ovulation = progesterone >5.04 ng/ml in 2 consecutive samples) | women with progesterone above 5.04 ng/mL (return of ovulation) in 28-day follow-up cycle ([1]; upon cessation of treatment)
3 | C[C@]12CCC(=O)C=C1[C@@H]1C[C@@H]1[C@H]1[C@@H]3[C@@H]4C[C@@H]4[C@@]4(CCC(=O)O4)[C@@]3(C)CC[C@@H]12 [DRSP, 6b,7b:15b,16b-Dimethylen-3-oxo-17a-pregn-4-ene-21,17-carbolactone] |  |  |  |  |  | no ovulation occurred | 17 out of 20
4 | C[C@]12CCC(=O)C=C1[C@@H]1C[C@@H]1[C@H]1[C@@H]3[C@@H]4C[C@@H]4[C@@]4(CCC(=O)O4)[C@@]3(C)CC[C@@H]12 [compound 080053, Drospirenone] | 7.2 | 19.8 | 34.2 | 44.8 | 0.63 |  | 
5 | C[C@]12CCC(=O)C=C1[C@@H]1C[C@@H]1[C@H]1[C@@H]3[C@@H]4C[C@@H]4[C@@]4(CCC(=O)O4)[C@@]3(C)CC[C@@H]12 [compound 080169, Drospirenone] | 2.9 | 24.5 | 37.1 | 48.9 | 0.45 |  | 
6 | C[C@]12CCC(=O)C=C1[C@@H]1C[C@@H]1[C@H]1[C@@H]3[C@@H]4C[C@@H]4[C@@]4(CCC(=O)O4)[C@@]3(C)CC[C@@H]12 [compound 080204, Drospirenone] | 4.4 | 13.1 | 24.8 | 34.5 | 0.83 |  | 
7 | C[C@]12CCC(=O)C=C1[C@@H]1C[C@@H]1[C@H]1[C@@H]3[C@@H]4C[C@@H]4[C@@]4(CCC(=O)O4)[C@@]3(C)CC[C@@H]12 [compound 080257, Drospirenone] | 5.3 | 12.6 | 23.4 | 35.3 | 0.77 |  | 
